Data from US11241501B2, “Anticancer prodrug for overcoming drug resistance” (Korea University Research and Business Foundation, priority 2018, dated 2022).

Key:
[1] = test system: MCF7/Dox xenograft tumors; test: Independent comparative xenograft study of C1-C4; format: in vivo, mice; conditions: n=5 per group, FIG. 23C
Text: Tumors are shown (right). […] C1 injection led to a 58% reduction in tumor growth, which was statistically greater than the reductions seen in the case of C2 (16%), C3 (9%), C4 (6%) and DMSO (0%) tested under otherwise identical conditions.

MCF7/Dox cells = test: Cell viability, C1 versus Dox+DCA; format: cell-based, human; conditions: resistant MCF7/Dox cells
Experimental: (§1) Data represent the mean±SD. *p<0.05. […] Cells were seeded in 24 well plates at 2×10^5 cells per well and were allowed to adhere for at least 24 h, growth medium was replaced with medium containing C1 or its analogues at the indicated concentrations and times, and cell viability was assessed via the WST-1 assay (Roche Diagnostics, Laval, QC, Canada). For the colony formation assay, cells were seeded in 6-well plates. After 24 h, cells were maintained in the presence of each probe or vehicle dimethyl sulfoxide (DMSO) for 10 days. Colonies were fixed with methanol for 10 min and stained with 0.05% crystal violet in 20% ethanol.

MCF7 cell line = test: Cell viability, C1 versus Dox+DCA; format: cell-based, human
Experimental: as §1

carboxylesterase = test: Carboxylesterase activation, fluorescence response and Dox release; format: biochemical
Experimental: The change in fluorescence intensity is directly related to active Dox release from C1.
FIG. 8 is a bar diagram representing the fluorescence intensity of C1 (5 μM) recorded at 570 nm after 4 h incubation in the presence or absence of carboxylesterase (1 U/ml), and various biological analytes, including amino acids (100 μM), thiols (10 mM, each), and reactive oxygen species (ROS) (200 μM, each) (Excitation at 470 nm). 1) C1 only, 2) L-proline, 3) L-ascorbic acid, 4) L-glutamic acid, 5) nicotinamide adenine dinucleotide (NADH), 6) pepsin, 7) acetylcholinesterase (AChE), 8) butyrylcholinesterase (BChE), 9) L-glutathione, 10) H2O2, 11) hypochlorite ion (OCl^−) 12) C1+esterase;
The maximal fluorescence intensity was recorded after 4 h. […] Note: The change in fluorescence intensity is considered to be proportional to the quantity of active Dox release from […]. […]
To gain further insight into the preliminary stability and activation of conjugates containing DCA, Dox, and a TPP cation targeting entity, both the target conjugate C1 and the control system C3 (an analog of C1 lacking the chloromethyl groups present in DCA; cf. FIG. 1) were prepared. […] Further support for the release of free Dox under these conditions came from time-dependent fluorescence experiments, HPLC, and liquid chromatography-mass spectrometry (FIG. 2B and FIG. 2C, and FIG. 7). […]

MCF7 cells = test: Colony formation assay; format: cell-based, human; conditions: 10 days
Experimental: (§2) Cells were seeded in 24 well plates at 2×10^5 cells per well and were allowed to adhere for at least 24 h, growth medium was replaced with medium containing C1 or its analogues at the indicated concentrations and times, and cell viability was assessed via the WST-1 assay (Roche Diagnostics, Laval, QC, Canada). For the colony formation assay, cells were seeded in 6-well plates. After 24 h, cells were maintained in the presence of each probe or vehicle dimethyl sulfoxide (DMSO) for 10 days. Colonies were fixed with methanol for 10 min and stained with 0.05% crystal violet in 20% ethanol.

WST cell viability assay = format: cell-based, human; conditions: human; HepG2 cells, WST assay; read-out: IC50 (cytotoxicity)
Experimental: (§3) HepG2 cells treated with each compound (5 μM, 24 hr) were co-stained with the mitochondrial marker MitoTracker (green). Boxed regions show co-localization of the test compounds and probe within the mitochondria. […] Experiments were carried out in triplicate and the data shown represent means±SD. **p<0.01. […] HepG2 cells were incubated with BNPP (100 μM) for 2 hr prior to C1 treatment. **p<0.01. […] Cleaved caspase-3 and PARP-1 levels were examined to assess apoptosis induction. C, cleaved.
as §2

HepG2 cells = test: WST cell viability assay; format: cell-based, human
Experimental: as §3, §2

COc1cccc2c1C(=O)c1c(O)c3c(c(O)c1C2=O)C[C@@](O)(C(=O)CO)C[C@@H]3OC1C[C@H](NC(=O)OC(Cc2cn(CCCCCC[P+](c3ccccc3)(c3ccccc3)c3ccccc3)nn2)c2ccc(NC(=O)C(Cl)Cl)cc2)[C@H](O)[C@H](C)O1.[Br-] (stereo partly drawn) [C1]
reduction in tumor growth [1]: 58%
cytotoxic effect (MCF7/Dox cells): appreciable cytotoxic effect
reduction in cell viability (MCF7 cell line): comparable reduction in cell viability
fluorescence response to various amino acids, enzymes and biomolecules versus esterase (carboxylesterase; 590 nm emission, 4 h incubation): large fluorescence enhancements in the 590 nm emission feature were observed upon treatment with the esterase but not in its absence
response to carboxylesterase (bond scission, Dox release) (carboxylesterase; carboxylesterase 1 U/mL, PBS, 37° C.): scission of the aniline-amide bond and release of Dox
colony-forming ability (MCF7 cells): strong inhibitory effect
IC50 (WST cell viability assay): 22.1 ± 0.325 µM
effect of BNPP pretreatment on C1-driven decrease in cell viability (HepG2 cells; HepG2, BNPP 100 μM 2 hr before treatment): strongly attenuated
cell death in cell-survival assays (HepG2 cells; compared with C3-C6): greater cell death in a dose-dependent manner
